Data published in ChEMBL document CHEMBL4819050, “Discovery of a novel series of guanidinebenzoates as gut-restricted enteropeptidase and trypsin dual inhibitors for the treatment of metabolic syndrome” (Bioorg Med Chem Lett, 2021).

Target: Enteropeptidase (Homo sapiens) (UniProt P98073)
Assay: Inhibition of full length recombinant human EP expressed in CHO cells assessed as protease activity using […] as substrate at 0.1 uM by fluorescence assay relative to control
Design: scale not given: the % may be the effect or the level left

Chain of Enteropeptidase (Homo sapiens) (P98073 2-784 limits assumed): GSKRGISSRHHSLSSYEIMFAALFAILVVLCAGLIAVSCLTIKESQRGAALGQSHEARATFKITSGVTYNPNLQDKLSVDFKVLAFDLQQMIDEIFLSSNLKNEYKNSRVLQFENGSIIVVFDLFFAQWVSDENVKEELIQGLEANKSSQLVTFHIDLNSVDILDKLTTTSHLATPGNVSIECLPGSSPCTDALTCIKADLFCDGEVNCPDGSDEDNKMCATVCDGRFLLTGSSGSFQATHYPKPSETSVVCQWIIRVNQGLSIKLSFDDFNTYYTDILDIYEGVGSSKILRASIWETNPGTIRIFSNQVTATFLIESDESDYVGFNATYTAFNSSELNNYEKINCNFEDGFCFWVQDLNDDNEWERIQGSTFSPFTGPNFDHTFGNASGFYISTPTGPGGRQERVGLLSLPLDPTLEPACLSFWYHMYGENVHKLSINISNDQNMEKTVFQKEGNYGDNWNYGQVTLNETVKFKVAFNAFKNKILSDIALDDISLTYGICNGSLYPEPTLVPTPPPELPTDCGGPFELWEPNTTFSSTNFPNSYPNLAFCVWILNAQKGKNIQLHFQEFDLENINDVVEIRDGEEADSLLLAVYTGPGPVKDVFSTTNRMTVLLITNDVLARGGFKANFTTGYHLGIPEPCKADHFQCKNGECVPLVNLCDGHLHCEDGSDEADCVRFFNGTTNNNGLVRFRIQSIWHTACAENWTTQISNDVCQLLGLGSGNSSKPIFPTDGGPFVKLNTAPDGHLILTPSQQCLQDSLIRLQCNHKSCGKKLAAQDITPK
Chain of Enteropeptidase (Homo sapiens) (P98073 785-1019 limits assumed): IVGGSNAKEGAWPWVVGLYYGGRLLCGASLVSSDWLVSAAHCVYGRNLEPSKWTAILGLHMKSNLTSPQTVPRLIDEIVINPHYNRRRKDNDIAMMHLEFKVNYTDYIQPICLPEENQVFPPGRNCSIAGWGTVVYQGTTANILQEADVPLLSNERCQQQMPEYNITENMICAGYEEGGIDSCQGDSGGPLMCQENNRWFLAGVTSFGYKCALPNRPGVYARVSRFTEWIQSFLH

Row | SMILES | Activity [%]
1 | CNC(=N)c1ccc(C(=O)Oc2ccc(CC(=O)O)n3ncnc23)cc1 | -0.79
2 | N=C(N)Nc1ccc(C(=O)Oc2ccc(C3OC(=O)NC3=O)n3ncnc23)cc1 (stereo not drawn) | 73
3 | CNC(=N)Nc1ccc(C(=O)Oc2ccc(CC(=O)O)n3ncnc23)cc1 | 15.3
4 | N#Cc1cc(C(=O)Oc2ccc(CC(=O)O)n3ncnc23)ccc1NC(=N)N | -3.01
5 | N=C(N)Nc1ccc(C(=O)Oc2ccc(CC(=O)O)n3ncnc23)c2ccoc12 | 36.3
6 | O=C(O)Cc1ccc(OC(=O)c2ccc(C3=NCCN3)cc2)c2ncnn12 | 4.69
7 | Cc1cc(C(=O)Oc2ccc(CC(=O)O)n3ncnc23)ccc1NC(=N)N | 1.3
8 | N=C(N)Nc1ccc(C(=O)Oc2ccc(CC(=O)O)n3ncnc23)cc1O | 34.3
9 | N=C(N)Nc1ccc(C(=O)Oc2cc(CC(=O)O)cn3ncnc23)cc1 | 13.1
10 | N=C(N)Nc1ccc(C(=O)Oc2ccc(CC(=O)O)n3ncnc23)s1 | 82
11 | CN(C(=N)N)c1ccc(C(=O)Oc2ccc(CC(=O)O)n3ncnc23)cc1 | 40.5
12 | N=C(N)Nc1ncc(C(=O)Oc2ccc(CC(=O)O)n3ncnc23)cn1 | 92.1
13 | C/N=C(\NC)Nc1ccc(C(=O)Oc2ccc(CC(=O)O)n3ncnc23)cc1 | 1.35
14 | COc1cc(C(=O)Oc2ccc(CC(=O)O)n3ncnc23)ccc1NC(=N)N | 20.8
15 | O=C(O)Cc1ccc(OC(=O)c2ccc(NC3=NCCN3)cc2)c2ncnn12 | -0.28
16 | N=C(NN)c1ccc(C(=O)Oc2ccc(CC(=O)O)n3ncnc23)cc1 | 0.5
17 | N=C(N)Nc1ccc(C(=O)Oc2ccc(CC(=O)O)n3ncnc23)cc1Cl | 18.2
18 | N=C(N)NCc1ccc(C(=O)Oc2ccc(CC(=O)O)n3ncnc23)cc1 | 10.9

Organism: Bos taurus
Assay: Inhibition of bovine trypsin assessed as protease activity using D-CHA-AR-AMC as substrate at 0.1 uM by fluorescence assay relative to control
Design: scale not given: the % may be the effect or the level left

Row | SMILES | Activity [%]
19 | CNC(=N)c1ccc(C(=O)Oc2ccc(CC(=O)O)n3ncnc23)cc1 | 5.66
20 | N=C(N)Nc1ccc(C(=O)Oc2ccc(C3OC(=O)NC3=O)n3ncnc23)cc1 (stereo not drawn) | 99.8
21 | CNC(=N)Nc1ccc(C(=O)Oc2ccc(CC(=O)O)n3ncnc23)cc1 | 9.6
22 | N#Cc1cc(C(=O)Oc2ccc(CC(=O)O)n3ncnc23)ccc1NC(=N)N | 0.95
23 | N=C(N)Nc1ccc(C(=O)Oc2ccc(CC(=O)O)n3ncnc23)c2ccoc12 | 14.6
24 | O=C(O)Cc1ccc(OC(=O)c2ccc(C3=NCCN3)cc2)c2ncnn12 | -0.36
25 | Cc1cc(C(=O)Oc2ccc(CC(=O)O)n3ncnc23)ccc1NC(=N)N | 0
26 | N=C(N)Nc1ccc(C(=O)Oc2ccc(CC(=O)O)n3ncnc23)cc1O | 12.4
27 | N=C(N)Nc1ccc(C(=O)Oc2cc(CC(=O)O)cn3ncnc23)cc1 | 81.7
28 | N=C(N)Nc1ccc(C(=O)Oc2ccc(CC(=O)O)n3ncnc23)s1 | 93.8
29 | CN(C(=N)N)c1ccc(C(=O)Oc2ccc(CC(=O)O)n3ncnc23)cc1 | 31.4
30 | N=C(N)Nc1ncc(C(=O)Oc2ccc(CC(=O)O)n3ncnc23)cn1 | 96.5
31 | C/N=C(\NC)Nc1ccc(C(=O)Oc2ccc(CC(=O)O)n3ncnc23)cc1 | -1.72
32 | COc1cc(C(=O)Oc2ccc(CC(=O)O)n3ncnc23)ccc1NC(=N)N | 13.8
33 | O=C(O)Cc1ccc(OC(=O)c2ccc(NC3=NCCN3)cc2)c2ncnn12 | 0.21
34 | N=C(NN)c1ccc(C(=O)Oc2ccc(CC(=O)O)n3ncnc23)cc1 | 1.62
35 | N=C(N)Nc1ccc(C(=O)Oc2ccc(CC(=O)O)n3ncnc23)cc1Cl | 6.34
36 | N=C(N)NCc1ccc(C(=O)Oc2ccc(CC(=O)O)n3ncnc23)cc1 | 3.87

Target: Enteropeptidase (Homo sapiens) (UniProt P98073)
Assay: Inhibition of full length recombinant human EP expressed in CHO cells assessed as protease activity using […] as substrate at 10 uM by fluorescence assay relative to control
Design: scale not given: the % may be the effect or the level left

Row | SMILES | Activity [%]
37 | CNC(=N)c1ccc(C(=O)Oc2ccc(CC(=O)O)n3ncnc23)cc1 | 52.3
38 | N=C(N)Nc1ccc(C(=O)Oc2ccc(C3OC(=O)NC3=O)n3ncnc23)cc1 (stereo not drawn) | 100
39 | CNC(=N)Nc1ccc(C(=O)Oc2ccc(CC(=O)O)n3ncnc23)cc1 | 97.9
40 | N#Cc1cc(C(=O)Oc2ccc(CC(=O)O)n3ncnc23)ccc1NC(=N)N | 32.1
41 | N=C(N)Nc1ccc(C(=O)Oc2ccc(CC(=O)O)n3ncnc23)c2ccoc12 | 100
42 | O=C(O)Cc1ccc(OC(=O)c2ccc(C3=NCCN3)cc2)c2ncnn12 | 58.6
43 | Cc1cc(C(=O)Oc2ccc(CC(=O)O)n3ncnc23)ccc1NC(=N)N | 36.7
44 | N=C(N)Nc1ccc(C(=O)Oc2ccc(CC(=O)O)n3ncnc23)cc1O | 101
45 | N=C(N)Nc1ccc(C(=O)Oc2cc(CC(=O)O)cn3ncnc23)cc1 | 101
46 | N=C(N)Nc1ccc(C(=O)Oc2ccc(CC(=O)O)n3ncnc23)s1 | 100
47 | CN(C(=N)N)c1ccc(C(=O)Oc2ccc(CC(=O)O)n3ncnc23)cc1 | 99.3
48 | N=C(N)Nc1ncc(C(=O)Oc2ccc(CC(=O)O)n3ncnc23)cn1 | 100
49 | C/N=C(\NC)Nc1ccc(C(=O)Oc2ccc(CC(=O)O)n3ncnc23)cc1 | 12.6
50 | COc1cc(C(=O)Oc2ccc(CC(=O)O)n3ncnc23)ccc1NC(=N)N | 101
51 | O=C(O)Cc1ccc(OC(=O)c2ccc(NC3=NCCN3)cc2)c2ncnn12 | -2.75
52 | N=C(NN)c1ccc(C(=O)Oc2ccc(CC(=O)O)n3ncnc23)cc1 | 51.8
53 | N=C(N)Nc1ccc(C(=O)Oc2ccc(CC(=O)O)n3ncnc23)cc1Cl | 101
54 | N=C(N)NCc1ccc(C(=O)Oc2ccc(CC(=O)O)n3ncnc23)cc1 | 83.6

Organism: Bos taurus
Assay: Inhibition of bovine trypsin assessed as protease activity using D-CHA-AR-AMC as substrate at 1 uM by fluorescence assay relative to control
Design: scale not given: the % may be the effect or the level left

Row | SMILES | Activity [%]
55 | CNC(=N)c1ccc(C(=O)Oc2ccc(CC(=O)O)n3ncnc23)cc1 | 8.66
56 | N=C(N)Nc1ccc(C(=O)Oc2ccc(C3OC(=O)NC3=O)n3ncnc23)cc1 (stereo not drawn) | 100
57 | CNC(=N)Nc1ccc(C(=O)Oc2ccc(CC(=O)O)n3ncnc23)cc1 | 57.1
58 | N#Cc1cc(C(=O)Oc2ccc(CC(=O)O)n3ncnc23)ccc1NC(=N)N | 12.3
59 | N=C(N)Nc1ccc(C(=O)Oc2ccc(CC(=O)O)n3ncnc23)c2ccoc12 | 80
60 | O=C(O)Cc1ccc(OC(=O)c2ccc(C3=NCCN3)cc2)c2ncnn12 | 2.66
61 | Cc1cc(C(=O)Oc2ccc(CC(=O)O)n3ncnc23)ccc1NC(=N)N | 8.4
62 | N=C(N)Nc1ccc(C(=O)Oc2ccc(CC(=O)O)n3ncnc23)cc1O | 73.1
63 | N=C(N)Nc1ccc(C(=O)Oc2cc(CC(=O)O)cn3ncnc23)cc1 | 100
64 | N=C(N)Nc1ccc(C(=O)Oc2ccc(CC(=O)O)n3ncnc23)s1 | 99.9
65 | CN(C(=N)N)c1ccc(C(=O)Oc2ccc(CC(=O)O)n3ncnc23)cc1 | 89.2
66 | N=C(N)Nc1ncc(C(=O)Oc2ccc(CC(=O)O)n3ncnc23)cn1 | 100
67 | C/N=C(\NC)Nc1ccc(C(=O)Oc2ccc(CC(=O)O)n3ncnc23)cc1 | 0.59
68 | COc1cc(C(=O)Oc2ccc(CC(=O)O)n3ncnc23)ccc1NC(=N)N | 72.4
69 | O=C(O)Cc1ccc(OC(=O)c2ccc(NC3=NCCN3)cc2)c2ncnn12 | -2.97
70 | N=C(NN)c1ccc(C(=O)Oc2ccc(CC(=O)O)n3ncnc23)cc1 | 2.74
71 | N=C(N)Nc1ccc(C(=O)Oc2ccc(CC(=O)O)n3ncnc23)cc1Cl | 56.6
72 | N=C(N)NCc1ccc(C(=O)Oc2ccc(CC(=O)O)n3ncnc23)cc1 | 19.9

Organism: Bos taurus
Assay: Inhibition of bovine trypsin assessed as protease activity using D-CHA-AR-AMC as substrate at 10 uM by fluorescence assay relative to control
Design: scale not given: the % may be the effect or the level left

Row | SMILES | Activity [%]
73 | CNC(=N)c1ccc(C(=O)Oc2ccc(CC(=O)O)n3ncnc23)cc1 | 66.5
74 | N=C(N)Nc1ccc(C(=O)Oc2ccc(C3OC(=O)NC3=O)n3ncnc23)cc1 (stereo not drawn) | 100
75 | CNC(=N)Nc1ccc(C(=O)Oc2ccc(CC(=O)O)n3ncnc23)cc1 | 97.7
76 | N#Cc1cc(C(=O)Oc2ccc(CC(=O)O)n3ncnc23)ccc1NC(=N)N | 29.9
77 | N=C(N)Nc1ccc(C(=O)Oc2ccc(CC(=O)O)n3ncnc23)c2ccoc12 | 99.9
78 | O=C(O)Cc1ccc(OC(=O)c2ccc(C3=NCCN3)cc2)c2ncnn12 | 21.6
79 | Cc1cc(C(=O)Oc2ccc(CC(=O)O)n3ncnc23)ccc1NC(=N)N | 35.5
80 | N=C(N)Nc1ccc(C(=O)Oc2ccc(CC(=O)O)n3ncnc23)cc1O | 100
81 | N=C(N)Nc1ccc(C(=O)Oc2cc(CC(=O)O)cn3ncnc23)cc1 | 100
82 | N=C(N)Nc1ccc(C(=O)Oc2ccc(CC(=O)O)n3ncnc23)s1 | 99.8
83 | CN(C(=N)N)c1ccc(C(=O)Oc2ccc(CC(=O)O)n3ncnc23)cc1 | 98.9
84 | N=C(N)Nc1ncc(C(=O)Oc2ccc(CC(=O)O)n3ncnc23)cn1 | 100
85 | C/N=C(\NC)Nc1ccc(C(=O)Oc2ccc(CC(=O)O)n3ncnc23)cc1 | 9.42
86 | COc1cc(C(=O)Oc2ccc(CC(=O)O)n3ncnc23)ccc1NC(=N)N | 99.9
87 | O=C(O)Cc1ccc(OC(=O)c2ccc(NC3=NCCN3)cc2)c2ncnn12 | -7.45
88 | N=C(NN)c1ccc(C(=O)Oc2ccc(CC(=O)O)n3ncnc23)cc1 | 25.5
89 | N=C(N)Nc1ccc(C(=O)Oc2ccc(CC(=O)O)n3ncnc23)cc1Cl | 99.8
90 | N=C(N)NCc1ccc(C(=O)Oc2ccc(CC(=O)O)n3ncnc23)cc1 | 72.5

Target: Enteropeptidase (Homo sapiens) (UniProt P98073)
Assay: Inhibition of full length recombinant human EP expressed in CHO cells assessed as protease activity using […] as substrate at 1 uM by fluorescence assay relative to control
Design: scale not given: the % may be the effect or the level left

Row | SMILES | Activity [%]
91 | CNC(=N)c1ccc(C(=O)Oc2ccc(CC(=O)O)n3ncnc23)cc1 | 11.3
92 | N=C(N)Nc1ccc(C(=O)Oc2ccc(C3OC(=O)NC3=O)n3ncnc23)cc1 (stereo not drawn) | 101
93 | CNC(=N)Nc1ccc(C(=O)Oc2ccc(CC(=O)O)n3ncnc23)cc1 | 80.1
94 | N#Cc1cc(C(=O)Oc2ccc(CC(=O)O)n3ncnc23)ccc1NC(=N)N | -6.26
95 | N=C(N)Nc1ccc(C(=O)Oc2ccc(CC(=O)O)n3ncnc23)c2ccoc12 | 98.8
96 | O=C(O)Cc1ccc(OC(=O)c2ccc(C3=NCCN3)cc2)c2ncnn12 | 16.9
97 | Cc1cc(C(=O)Oc2ccc(CC(=O)O)n3ncnc23)ccc1NC(=N)N | 6.3
98 | N=C(N)Nc1ccc(C(=O)Oc2ccc(CC(=O)O)n3ncnc23)cc1O | 92.1
99 | N=C(N)Nc1ccc(C(=O)Oc2cc(CC(=O)O)cn3ncnc23)cc1 | 58.8
100 | N=C(N)Nc1ccc(C(=O)Oc2ccc(CC(=O)O)n3ncnc23)s1 | 100
101 | CN(C(=N)N)c1ccc(C(=O)Oc2ccc(CC(=O)O)n3ncnc23)cc1 | 93.8
102 | N=C(N)Nc1ncc(C(=O)Oc2ccc(CC(=O)O)n3ncnc23)cn1 | 99.5
103 | C/N=C(\NC)Nc1ccc(C(=O)Oc2ccc(CC(=O)O)n3ncnc23)cc1 | 1.32
104 | COc1cc(C(=O)Oc2ccc(CC(=O)O)n3ncnc23)ccc1NC(=N)N | 87.1
105 | O=C(O)Cc1ccc(OC(=O)c2ccc(NC3=NCCN3)cc2)c2ncnn12 | -2.47
106 | N=C(NN)c1ccc(C(=O)Oc2ccc(CC(=O)O)n3ncnc23)cc1 | 12.2
107 | N=C(N)Nc1ccc(C(=O)Oc2ccc(CC(=O)O)n3ncnc23)cc1Cl | 84.4
108 | N=C(N)NCc1ccc(C(=O)Oc2ccc(CC(=O)O)n3ncnc23)cc1 | 43.7
